Experimental findings from patent publication US20170283404A1, “CRYSTALLINE FORMS OF 2-(4-(4-ETHOXY-6-OXO-1,6-DIHYDROPYRIDIN-3-YL)-2-FLUOROPHENYL)-N-(5-(1,1,1-TRIFLUORO-2-METHYLPROPAN-2-YL)ISOXAZOL-3-YL)ACETAMIDE” (GLAXOSMITHKLINE INTELLECTUAL PROPERTY DEVELOPMENT LIMITED, priority 2014, published 2017) are described below.

The data set is described as follows: Drying of crystalline form in vacuum oven (solid-state stability). The conditions noted are these: vacuum oven at 50° C. with a nitrogen bleed for about 17 hours. It counts as physicochemical.

For `CCOc1cc(=O)[nH]cc1-c1ccc(CC(=O)Nc2cc(C(C)(C)C(F)(F)F)on2)c(F)c1` [Compound A—Monohydrate, 2-(4-(4-ethoxy-6-oxo-1,6-dihydropyridin-3-yl)-2-fluorophenyl)-N-(5-(1,1,1-trifluoro-2-methylpropan-2-yl)isoxazol-3-yl)acetamide], the “change in form by Raman or XRPD after drying” value is “no change in form” and the “change to the water content by TGA after drying” value is listed as “no change to the water content”.
